IC50 data for 1 compound are collected here from publication PMC3412150 (Circulation research, 2012).

Structures are written as SMILES.

The target in the experiment is Nav1.8 (SCN10A) (Homo sapiens, UniProt Q9Y5Y9). Description: whole-cell voltage clamp, transfected ND7/[…] cells. It counts as cell-based.
Nav1.8 (SCN10A), sequence (Q9Y5Y9 whole entry): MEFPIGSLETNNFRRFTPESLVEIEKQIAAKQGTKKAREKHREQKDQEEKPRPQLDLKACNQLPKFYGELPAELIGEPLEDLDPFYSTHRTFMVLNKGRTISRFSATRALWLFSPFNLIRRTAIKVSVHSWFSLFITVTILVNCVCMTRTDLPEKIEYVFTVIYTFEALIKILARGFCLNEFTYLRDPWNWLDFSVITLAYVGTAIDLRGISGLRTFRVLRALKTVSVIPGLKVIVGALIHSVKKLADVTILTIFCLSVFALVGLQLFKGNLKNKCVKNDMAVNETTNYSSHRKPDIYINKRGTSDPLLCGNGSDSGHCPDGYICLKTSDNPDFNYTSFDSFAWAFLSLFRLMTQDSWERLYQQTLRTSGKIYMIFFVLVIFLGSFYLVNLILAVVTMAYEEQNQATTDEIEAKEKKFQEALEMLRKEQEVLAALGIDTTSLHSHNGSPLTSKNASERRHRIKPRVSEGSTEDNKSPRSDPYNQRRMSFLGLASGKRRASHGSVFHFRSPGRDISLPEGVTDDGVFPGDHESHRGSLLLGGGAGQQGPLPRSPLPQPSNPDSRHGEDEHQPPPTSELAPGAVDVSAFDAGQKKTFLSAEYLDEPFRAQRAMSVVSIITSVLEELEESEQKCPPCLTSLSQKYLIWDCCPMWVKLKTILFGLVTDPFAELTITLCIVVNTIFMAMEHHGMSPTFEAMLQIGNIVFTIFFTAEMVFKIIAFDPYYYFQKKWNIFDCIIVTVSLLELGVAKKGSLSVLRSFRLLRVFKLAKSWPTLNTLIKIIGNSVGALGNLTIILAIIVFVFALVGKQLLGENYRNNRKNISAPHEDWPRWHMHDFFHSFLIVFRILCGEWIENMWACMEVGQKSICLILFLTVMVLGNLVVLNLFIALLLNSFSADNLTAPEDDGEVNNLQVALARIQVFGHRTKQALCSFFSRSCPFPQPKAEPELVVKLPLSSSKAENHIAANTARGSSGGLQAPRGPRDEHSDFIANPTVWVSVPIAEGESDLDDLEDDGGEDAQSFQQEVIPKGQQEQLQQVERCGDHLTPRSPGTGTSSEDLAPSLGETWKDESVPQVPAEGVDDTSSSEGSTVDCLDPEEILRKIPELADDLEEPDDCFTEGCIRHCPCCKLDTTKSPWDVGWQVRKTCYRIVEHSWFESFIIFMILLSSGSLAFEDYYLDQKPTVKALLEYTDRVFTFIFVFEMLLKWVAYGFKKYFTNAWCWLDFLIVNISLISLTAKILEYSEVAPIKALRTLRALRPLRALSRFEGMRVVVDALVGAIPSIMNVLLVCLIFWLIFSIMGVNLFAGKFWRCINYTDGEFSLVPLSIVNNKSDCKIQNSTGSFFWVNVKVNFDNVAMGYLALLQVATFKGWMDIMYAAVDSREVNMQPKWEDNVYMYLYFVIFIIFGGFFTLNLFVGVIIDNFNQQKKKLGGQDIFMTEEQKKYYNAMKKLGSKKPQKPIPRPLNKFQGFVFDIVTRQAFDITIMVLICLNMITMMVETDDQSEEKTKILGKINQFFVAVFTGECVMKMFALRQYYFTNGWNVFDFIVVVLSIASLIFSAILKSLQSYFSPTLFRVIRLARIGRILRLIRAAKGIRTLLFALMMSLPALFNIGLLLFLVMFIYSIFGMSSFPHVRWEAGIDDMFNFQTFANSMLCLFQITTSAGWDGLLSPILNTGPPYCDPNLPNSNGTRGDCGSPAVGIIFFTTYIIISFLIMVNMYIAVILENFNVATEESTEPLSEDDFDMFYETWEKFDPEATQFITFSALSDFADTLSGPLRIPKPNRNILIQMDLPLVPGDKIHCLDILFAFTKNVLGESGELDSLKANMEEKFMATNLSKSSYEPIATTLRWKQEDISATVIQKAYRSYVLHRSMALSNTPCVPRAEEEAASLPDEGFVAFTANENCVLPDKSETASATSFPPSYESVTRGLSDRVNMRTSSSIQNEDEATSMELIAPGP

For `COc1cc(NC(=O)c2ccc(-c3ccc(Cl)cc3)o2)cc(OC)c1` [A-803467], the concentration for half-maximal inhibition (IC50) is around 10 nM.

The term IC50 denotes the point on the concentration scale where inhibition reaches its midpoint. A higher IC50 goes with lower potency.
